Patent US20070203177A1, “Forms of dolasetron mesylate and processes for their preparation” (priority 2006, published 2007)

Assay: Heat transformations of Dolasetron mesylate forms (solid-state form after heating)
Type: physicochemical

## CS(=O)(=O)O.O=C(OC1C[C@@H]2CC3C[C@H](C1)N2CC3=O)c1c[nH]c2ccccc12 (stereo partly drawn) [Form VIII, Dolasetron mesylate]
Heated at 160 °C, 30 min
  HEAT TRANSFORMATION RESULT: XII
Heated at 160 °C, 60 min., listed as VIII
  HEAT TRANSFORMATION RESULT: XII

## CS(=O)(=O)O.O=C(OC1C[C@@H]2CC3C[C@H](C1)N2CC3=O)c1c[nH]c2ccccc12 (stereo partly drawn) [Form V, Dolasetron mesylate]
Heated at 160 °C, 60 min., listed as V
  HEAT TRANSFORMATION RESULT: XII

## CS(=O)(=O)O.O=C(OC1C[C@@H]2CC3C[C@H](C1)N2CC3=O)c1c[nH]c2ccccc12 (stereo partly drawn) [Form IV, Dolasetron mesylate]
Heated at 160 °C, 60 min., listed as IV
  HEAT TRANSFORMATION RESULT: VII + IV

## O=C(OC1CC2CC3CC(C1)N2CC3=O)c1c[nH]c2ccccc12 (stereo not drawn) [Form II, (2α,6α,8α,9αβ)-octahydro-3-oxo-2,6-methano-2H-quinolizin-8-yl-1H-indole-3-carboxylate monomethanesulfonate monohydrate, reference compound]
After 160 °C, 30 min, then 160, 30 min
  HEAT TRANSFORMATION RESULT (second TEMP./TIME): VII > III

## CS(=O)(=O)O.O=C(OC1C[C@@H]2CC3C[C@H](C1)N2CC3=O)c1c[nH]c2ccccc12 (stereo partly drawn) [Form I, Dolasetron Mesylate]
Heated at 190 °C, 30 min.
  HEAT TRANSFORMATION RESULT: Amorphous > III
